Measured values published in PubChem BioAssay (NCI).
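96-well plates; 48 h exposure; 5 concentrations. Endpoints by linear interpolation between flanking doses. Not reached: highest tested concentration assigned. TGI marks complete inhibition of growth.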

Experiments:
Assay in all cases: NCI-60 cell line screen, 48 h
786-0 renal = tested on: 786-0 renal
A498 renal = tested on: A498 renal
A549 NSCLC = tested on: A549 NSCLC
ACHN renal = tested on: ACHN renal
BT-549 breast = tested on: BT-549 breast
CAKI-1 renal = tested on: CAKI-1 renal
DU-145 prostate = tested on: DU-145 prostate
EKVX NSCLC = tested on: EKVX NSCLC
HCT-116 colon = tested on: HCT-116 colon
HCT-15 colon = tested on: HCT-15 colon
HL-60(TB) leukemia = tested on: HL-60(TB) leukemia
HOP-62 NSCLC = tested on: HOP-62 NSCLC
HOP-92 NSCLC = tested on: HOP-92 NSCLC
HS 578T breast = tested on: HS 578T breast
HT29 colon = tested on: HT29 colon
IGROV1 ovarian = tested on: IGROV1 ovarian
K-562 leukemia = tested on: K-562 leukemia
KM12 colon = tested on: KM12 colon
LOX IMVI melanoma = tested on: LOX IMVI melanoma
M14 melanoma = tested on: M14 melanoma
MCF7 breast = tested on: MCF7 breast
MDA-MB-231 breast = tested on: MDA-MB-231 breast
MDA-MB-435 = tested on: MDA-MB-435
MDA-N = tested on: MDA-N
MOLT-4 leukemia = tested on: MOLT-4 leukemia
NCI-H226 lung = tested on: NCI-H226 lung
NCI-H23 lung = tested on: NCI-H23 lung
NCI-H460 lung = tested on: NCI-H460 lung
NCI-H522 lung = tested on: NCI-H522 lung
NCI/ADR-RES ovarian = tested on: NCI/ADR-RES ovarian
OVCAR-3 ovarian = tested on: OVCAR-3 ovarian
OVCAR-4 ovarian = tested on: OVCAR-4 ovarian
OVCAR-5 ovarian = tested on: OVCAR-5 ovarian
OVCAR-8 ovarian = tested on: OVCAR-8 ovarian
PC-3 prostate = tested on: PC-3 prostate
RPMI-8226 leukemia = tested on: RPMI-8226 leukemia
RXF 393 renal = tested on: RXF 393 renal
SF-268 CNS = tested on: SF-268 CNS
SF-295 CNS = tested on: SF-295 CNS
SF-539 CNS = tested on: SF-539 CNS
SK-MEL-2 melanoma = tested on: SK-MEL-2 melanoma
SK-MEL-28 melanoma = tested on: SK-MEL-28 melanoma
SK-MEL-5 melanoma = tested on: SK-MEL-5 melanoma
SNB-75 CNS = tested on: SNB-75 CNS
SR leukemia = tested on: SR leukemia
SW-620 colon = tested on: SW-620 colon
T-47D breast = tested on: T-47D breast
TK-10 renal = tested on: TK-10 renal
U251 CNS = tested on: U251 CNS
UACC-257 melanoma = tested on: UACC-257 melanoma
UO-31 renal = tested on: UO-31 renal
COLO 205 colon = tested on: COLO 205 colon
MALME-3M melanoma = tested on: MALME-3M melanoma
SK-OV-3 ovarian = tested on: SK-OV-3 ovarian
SN12C renal = tested on: SN12C renal
SNB-19 CNS = tested on: SNB-19 CNS
UACC-62 melanoma = tested on: UACC-62 melanoma
CCRF-CEM leukemia = tested on: CCRF-CEM leukemia

## Cc1n[nH]c(=S)n1/N=C/c1ccc(-c2ccc(Cl)cc2)o1
786-0 renal
  TGI: > 100 µM
A498 renal
  TGI: > 100 µM
A549 NSCLC
  TGI: > 100 µM
ACHN renal
  TGI: > 100 µM
BT-549 breast
  TGI: > 100 µM
CAKI-1 renal
  TGI: > 100 µM
DU-145 prostate
  TGI: > 100 µM
EKVX NSCLC
  TGI: > 100 µM
HCT-116 colon
  TGI: > 100 µM
HCT-15 colon
  TGI: > 100 µM
HL-60(TB) leukemia
  TGI: > 100 µM
HOP-62 NSCLC
  TGI: > 100 µM
HOP-92 NSCLC
  TGI: > 100 µM
HS 578T breast
  TGI: > 100 µM
HT29 colon
  TGI: > 100 µM
IGROV1 ovarian
  TGI: > 100 µM
K-562 leukemia
  TGI: > 100 µM
KM12 colon
  TGI: > 100 µM
LOX IMVI melanoma
  TGI: > 100 µM
M14 melanoma
  TGI: > 100 µM
MCF7 breast
  TGI: > 100 µM
MDA-MB-231 breast
  TGI: > 100 µM
MDA-MB-435
  TGI: > 100 µM
MDA-N
  TGI: > 100 µM
MOLT-4 leukemia
  TGI: > 100 µM
NCI-H226 lung
  TGI: > 100 µM
NCI-H23 lung
  TGI: > 100 µM
NCI-H460 lung
  TGI: > 100 µM
NCI-H522 lung
  TGI: > 100 µM
NCI/ADR-RES ovarian
  TGI: > 100 µM
OVCAR-3 ovarian
  TGI: > 100 µM
OVCAR-4 ovarian
  TGI: > 100 µM
OVCAR-5 ovarian
  TGI: > 100 µM
OVCAR-8 ovarian
  TGI: > 100 µM
PC-3 prostate
  TGI: > 100 µM
RPMI-8226 leukemia
  TGI: > 100 µM
RXF 393 renal
  TGI: > 100 µM
SF-268 CNS
  TGI: > 100 µM
SF-295 CNS
  TGI: > 100 µM
SF-539 CNS
  TGI: > 100 µM
SK-MEL-2 melanoma
  TGI: > 100 µM
SK-MEL-28 melanoma
  TGI: > 100 µM
SK-MEL-5 melanoma
  TGI: > 100 µM
SNB-75 CNS
  TGI: 82.9 µM
SR leukemia
  TGI: > 100 µM
SW-620 colon
  TGI: > 100 µM
T-47D breast
  TGI: > 100 µM
TK-10 renal
  TGI: > 100 µM
U251 CNS
  TGI: > 100 µM
UACC-257 melanoma
  TGI: > 100 µM
UO-31 renal
  TGI: > 100 µM

## Cn1c(=O)c2[nH]c(CSCc3ccccc3)nc2n(C)c1=O
786-0 renal
  TGI: > 100 µM
A498 renal
  TGI: > 100 µM
A549 NSCLC
  TGI: > 100 µM
ACHN renal
  TGI: > 100 µM
BT-549 breast
  TGI: > 100 µM
CAKI-1 renal
  TGI: > 100 µM
COLO 205 colon
  TGI: > 100 µM
DU-145 prostate
  TGI: > 100 µM
EKVX NSCLC
  TGI: > 100 µM
HCT-116 colon
  TGI: > 100 µM
HCT-15 colon
  TGI: > 100 µM
HOP-62 NSCLC
  TGI: > 100 µM
HOP-92 NSCLC
  TGI: > 100 µM
HS 578T breast
  TGI: > 100 µM
HT29 colon
  TGI: > 100 µM
IGROV1 ovarian
  TGI: > 100 µM
K-562 leukemia
  TGI: > 100 µM
KM12 colon
  TGI: > 100 µM
LOX IMVI melanoma
  TGI: > 100 µM
M14 melanoma
  TGI: > 100 µM
MALME-3M melanoma
  TGI: > 100 µM
MCF7 breast
  TGI: > 100 µM
MDA-MB-231 breast
  TGI: > 100 µM
MDA-MB-435
  TGI: > 100 µM
MDA-N
  TGI: > 100 µM
MOLT-4 leukemia
  TGI: > 100 µM
NCI-H226 lung
  TGI: > 100 µM
NCI-H23 lung
  TGI: > 100 µM
NCI-H460 lung
  TGI: > 100 µM
NCI-H522 lung
  TGI: > 100 µM
NCI/ADR-RES ovarian
  TGI: > 100 µM
OVCAR-3 ovarian
  TGI: > 100 µM
OVCAR-4 ovarian
  TGI: > 100 µM
OVCAR-5 ovarian
  TGI: > 100 µM
OVCAR-8 ovarian
  TGI: > 100 µM
PC-3 prostate
  TGI: > 100 µM
RPMI-8226 leukemia
  TGI: > 100 µM
RXF 393 renal
  TGI: > 100 µM
SF-268 CNS
  TGI: > 100 µM
SF-295 CNS
  TGI: > 100 µM
SF-539 CNS
  TGI: > 100 µM
SK-MEL-2 melanoma
  TGI: > 100 µM
SK-MEL-28 melanoma
  TGI: > 100 µM
SK-MEL-5 melanoma
  TGI: > 100 µM
SK-OV-3 ovarian
  TGI: > 100 µM
SN12C renal
  TGI: > 100 µM
SNB-19 CNS
  TGI: > 100 µM
SNB-75 CNS
  TGI: > 100 µM
SR leukemia
  TGI: > 100 µM
T-47D breast
  TGI: > 100 µM
TK-10 renal
  TGI: > 100 µM
U251 CNS
  TGI: > 100 µM
UACC-257 melanoma
  TGI: > 100 µM
UACC-62 melanoma
  TGI: > 100 µM
UO-31 renal
  TGI: > 100 µM

## O=C(O)CNCP(=O)(O)O
786-0 renal
  TGI: > 100 µM
A498 renal
  TGI: > 100 µM
A549 NSCLC
  TGI: > 100 µM
ACHN renal
  TGI: > 100 µM
BT-549 breast
  TGI: > 100 µM
CAKI-1 renal
  TGI: > 100 µM
CCRF-CEM leukemia
  TGI: > 100 µM
COLO 205 colon
  TGI: > 100 µM
DU-145 prostate
  TGI: > 100 µM
EKVX NSCLC
  TGI: > 100 µM
HCT-116 colon
  TGI: > 100 µM
HCT-15 colon
  TGI: > 100 µM
HL-60(TB) leukemia
  TGI: > 100 µM
HOP-62 NSCLC
  TGI: > 100 µM
HOP-92 NSCLC
  TGI: > 100 µM
HS 578T breast
  TGI: > 100 µM
HT29 colon
  TGI: > 100 µM
IGROV1 ovarian
  TGI: > 100 µM
K-562 leukemia
  TGI: > 100 µM
KM12 colon
  TGI: > 100 µM
LOX IMVI melanoma
  TGI: > 100 µM
M14 melanoma
  TGI: > 100 µM
MALME-3M melanoma
  TGI: > 100 µM
MCF7 breast
  TGI: > 100 µM
MDA-MB-231 breast
  TGI: > 100 µM
MDA-MB-435
  TGI: > 100 µM
MDA-N
  TGI: > 100 µM
MOLT-4 leukemia
  TGI: > 100 µM
NCI-H226 lung
  TGI: > 100 µM
NCI-H23 lung
  TGI: > 100 µM
NCI-H460 lung
  TGI: > 100 µM
NCI-H522 lung
  TGI: > 100 µM
NCI/ADR-RES ovarian
  TGI: > 100 µM
OVCAR-3 ovarian
  TGI: > 100 µM
OVCAR-4 ovarian
  TGI: > 100 µM
OVCAR-5 ovarian
  TGI: > 100 µM
OVCAR-8 ovarian
  TGI: > 100 µM
PC-3 prostate
  TGI: > 100 µM
RPMI-8226 leukemia
  TGI: > 100 µM
RXF 393 renal
  TGI: > 100 µM
SF-268 CNS
  TGI: > 100 µM
SF-295 CNS
  TGI: > 100 µM
SF-539 CNS
  TGI: > 100 µM
SK-MEL-2 melanoma
  TGI: > 100 µM
SK-MEL-28 melanoma
  TGI: > 100 µM
SK-MEL-5 melanoma
  TGI: > 100 µM
SK-OV-3 ovarian
  TGI: > 100 µM
SN12C renal
  TGI: > 100 µM
SNB-19 CNS
  TGI: > 100 µM
SNB-75 CNS
  TGI: > 100 µM
SR leukemia
  TGI: > 100 µM
SW-620 colon
  TGI: > 100 µM
T-47D breast
  TGI: > 100 µM
TK-10 renal
  TGI: > 100 µM
U251 CNS
  TGI: > 100 µM
UACC-257 melanoma
  TGI: > 100 µM
UACC-62 melanoma
  TGI: > 100 µM
